Measured values taken from patent US20260356821A1, “SOLID FORMS OF AN ERBB INHIBITOR” (Black Diamond Therapeutics, Inc., priority 2023, published 2026).
Values after ≈ are worked out from the molar mass of the structure shown. “Also recorded” adds a separate entry of the source.

What was measured:
Assay type in all cases: physicochemical
[1] = Crystallinity after drying under vacuum
Protocol: (§1) X-ray Powder Diffractometer (XRPD): XRPD analysis was performed using a Bruker D8 Advance X-ray powder diffractometer. Analysis was performed using parameters as set forth below.
To explore further optimization of the crystallinity of the salt, about 25 mg of dry cake were re-equilibrated in 7 different solvents for 3 days. Solids obtained were analyzed by XRPD and 1H-NMR. […]

[2] = Solubility in aqueous media, 37 °C
Protocol: as §1
(§2) High Performance Liquid Chromatograph (HPLC): HPLC analysis was performed using SHIMADZU LC-20AD/Agilent 1260 infinity II Binary Pump. Analysis was performed using parameters as set forth below.
Solubility: 6.39 mg of the L-malate salt Form M (equal to 4 mg free base) was weighed into an 8 mL vial. 2 mL of aqueous media was added, respectively. The suspension was stirred at 37 °C with 400 rpm for 2 h and 24 h. The suspension was taken out after 2 h and 24 h and then centrifuged at 14,000 rpm for 5 min. The supernatant was analyzed by HPLC. The pH of the supernatant was tested. The solids obtained (wet cakes) were characterized by XRPD. Table 3 summarizes the observation of the solubility study.

[3] = Bulk Stability (solid state; HPLC purity, color, XRPD)
Protocol: as §1, §2
Bulk Stability: Form M was evaluated for bulk stability studies. The bulk stability study was conducted in 3 conditions including 25 °C/92% RH in an open container, 40 °C/75% RH in an open container and 60 °C in a tight container for 1 week, 2 weeks and 4 weeks, respectively.

Hygroscopicity by DVS = conditions: 25 °C
Protocol: as §1
Dynamic Vapor Sorption (DVS): DVS analysis was performed using Intrinsic. Analysis was performed using parameters as set forth below.
Hygroscopicity: The hygroscopicity for Form M was examined by DVS.

[4] = 25 °C/92% RH, open container, 1 week
[5] = 40 °C/75% RH, open container, 1 week
[6] = 40 °C/75% RH, open container, 2 weeks
[7] = 40 °C/75% RH, open container, 4 weeks
[8] = 60 °C, tight container, 2 weeks

- crystallinity after drying [1]: crystallinity decreased
- Solubility ([2]; FaSSIF-v1, pH 6.5, 37 °C, 2 h): Degradation
- pH of the supernatant ([2]; FaSSIF-v1, pH 6.5, 37 °C, 2 h): pH 4.9
- Solubility ([2]; FaSSIF-v1, pH 6.5, 37 °C, 24 h): Degradation
- pH of the supernatant ([2]; FaSSIF-v1, pH 6.5, 37 °C, 24 h): pH 4.8
- Solubility ([2]; FeSSIF-v1, pH 5.0, 37 °C, 2 h): Degradation
- pH of the supernatant ([2]; FeSSIF-v1, pH 5.0, 37 °C, 2 h): pH 4.9
- Solubility ([2]; FeSSIF-v1, pH 5.0, 37 °C, 24 h): Degradation
- pH of the supernatant ([2]; FeSSIF-v1, pH 5.0, 37 °C, 24 h): pH 4.8
- pH of the supernatant ([2]; SGF, pH 2.0, 37 °C, 2 h): pH 2.8
- solubility at 2 h ([2]; SGF, pH 2.0, 37 °C, 2 h): > 2000 µg/mL
- pH of the supernatant ([2]; SGF, pH 2.0, 37 °C, 24 h): pH 2.6
- solubility at 24 h ([2]; SGF, pH 2.0, 37 °C, 24 h): > 2000 µg/mL
- pH of the supernatant ([2]; Water, 37 °C, 2 h): pH 4.3
- solubility at 2 h ([2]; Water, 37 °C, 2 h): 1490 µg/mL (≈ 2.65 mM)
- pH of the supernatant ([2]; Water, 37 °C, 24 h): pH 4.3
- solubility at 24 h ([2]; Water, 37 °C, 24 h): 1780 µg/mL (≈ 3.17 mM)
- solubility at 2 h ([2]; aqueous buffer, pH 4.5 (50 mM) acetate buffer, 37 °C, 2 h): > 2000 µg/mL
- solubility at 24 h ([2]; aqueous buffer, pH 4.5 (50 mM) acetate buffer, 37 °C, 24 h): > 2000 µg/mL
- solubility at 2 h ([2]; aqueous buffer, pH 6.8 (50 mM) phosphate buffer, 37 °C, 2 h): 183 µg/mL (≈ 0.326 mM)
- solubility at 24 h ([2]; aqueous buffer, pH 6.8 (50 mM) phosphate buffer, 37 °C, 24 h): 189 µg/mL (≈ 0.336 mM)
- pH of the supernatant ([2]; pH 1.0 (0.1N HCl), 37 °C, 2 h): pH 0.9
- solubility at 2 h ([2]; pH 1.0 (0.1N HCl), 37 °C, 2 h): > 2000 µg/mL
- pH of the supernatant ([2]; pH 1.0 (0.1N HCl), 37 °C, 24 h): pH 0.8
- solubility at 24 h ([2]; pH 1.0 (0.1N HCl), 37 °C, 24 h): > 2000 µg/mL
- pH of the supernatant ([2]; pH 4.5 (50 mM) acetate buffer, 37 °C, 2 h, marked *): pH 4.5*
- pH of the supernatant ([2]; pH 4.5 (50 mM) acetate buffer, 37 °C, 24 h): pH 4.4
- pH of the supernatant ([2]; pH 6.8 (50 mM) phosphate buffer, 37 °C, 2 h): pH 6.2
- pH of the supernatant ([2]; pH 6.8 (50 mM) phosphate buffer, 37 °C, 24 h): pH 6.3
- Bulk (XRPD) [3, 4]: No form change (Agglomeration)
- Color [3, 4]: No change of color
- Color ([3]; 25 °C/92% RH, open container, 2 weeks): No change of color
- Color ([3]; 25 °C/92% RH, open container, 4 weeks): No change of color
- Bulk (XRPD) [3, 5]: No form change
- Color [3, 5]: No change of color
- Bulk (XRPD) [3, 6]: No form change
- Color [3, 6]: No change of color
- Bulk (XRPD) [3, 7]: No form change
- Color [3, 7]: No change of color
- Bulk (XRPD) ([3]; 60 °C, tight container, 1 week): No form change (Crystallinity decreased)
- Color ([3]; 60 °C, tight container, 1 week): No change of color
- Bulk (XRPD) [3, 8]: No form change (Crystallinity decreased)
- Color [3, 8]: No change of color
- Color ([3]; 60 °C, tight container, 4 weeks): No change of color
- Initial Purity by HPLC ([3]; initial, before storage): 94.0%
- Desorp. (%) (Hygroscopicity by DVS; 0% RH, first desorption): 0.0%
- Sorp. (%) (Hygroscopicity by DVS; 0% RH, second sorption): 0.0%
- Desorp. (%) (Hygroscopicity by DVS; 10% RH, first desorption): 1.4%
- Sorp. (%) (Hygroscopicity by DVS; 10% RH, second sorption): 0.6%
- Desorp. (%) (Hygroscopicity by DVS; 20% RH, first desorption): 2.5%
- Sorp. (%) (Hygroscopicity by DVS; 20% RH, second sorption): 1.4%
- Desorp. (%) (Hygroscopicity by DVS; 30% RH, first desorption): 3.6%
- Sorp. (%) (Hygroscopicity by DVS; 30% RH, second sorption): 2.2%
- Desorp. (%) (Hygroscopicity by DVS; 40% RH, first desorption): 5.0%
- Sorp. (%) (Hygroscopicity by DVS; 40% RH, first sorption): 4.1%
- Desorp. (%) (Hygroscopicity by DVS; 40% RH, second desorption): 5.2%
- Sorp. (%) (Hygroscopicity by DVS; 40% RH, second sorption): 3.1%
- Desorp. (%) (Hygroscopicity by DVS; 50% RH, first desorption): 6.1%
- Sorp. (%) (Hygroscopicity by DVS; 50% RH, first sorption): 4.4%
- Desorp. (%) (Hygroscopicity by DVS; 50% RH, second desorption): 6.4%
- Sorp. (%) (Hygroscopicity by DVS; 50% RH, second sorption): 4.2%
- Desorp. (%) (Hygroscopicity by DVS; 60% RH, first desorption): 7.4%
- Sorp. (%) (Hygroscopicity by DVS; 60% RH, first sorption): 4.9%
- Desorp. (%) (Hygroscopicity by DVS; 60% RH, second desorption): 7.4%
- Sorp. (%) (Hygroscopicity by DVS; 60% RH, second sorption): 5.6%
- Desorp. (%) (Hygroscopicity by DVS; 70% RH, first desorption): 9.3%
- Sorp. (%) (Hygroscopicity by DVS; 70% RH, first sorption): 5.6%
- Desorp. (%) (Hygroscopicity by DVS; 70% RH, second desorption): 8.7%
- Sorp. (%) (Hygroscopicity by DVS; 70% RH, second sorption): 7.5%
- Desorp. (%) (Hygroscopicity by DVS; 80% RH, first desorption): 13.5%
- Sorp. (%) (Hygroscopicity by DVS; 80% RH, first sorption): 6.9%
- Desorp. (%) (Hygroscopicity by DVS; 80% RH, second desorption): 11.4%
- Sorp. (%) (Hygroscopicity by DVS; 80% RH, second sorption): 9.7%
- Desorp. (%) (Hygroscopicity by DVS; 90% RH, first desorption): 29.5%
- Sorp. (%) (Hygroscopicity by DVS; 90% RH, first sorption): 15.3%
- Desorp. (%) (Hygroscopicity by DVS; 90% RH, second desorption): 20.9%
- Sorp. (%) (Hygroscopicity by DVS; 90% RH, second sorption): 15.8%
- Desorp. (%) (Hygroscopicity by DVS; 95% RH, first desorption): 41.2%
- Sorp. (%) (Hygroscopicity by DVS; 95% RH, first sorption): 41.2%
- Desorp. (%) (Hygroscopicity by DVS; 95% RH, second desorption): 31.5%
- Sorp. (%) (Hygroscopicity by DVS; 95% RH, second sorption): 31.5%
- XRPD after DVS test (Hygroscopicity by DVS; after cycle 40-95-0-95-40% RH): No form change
- DVS (Hygroscopicity by DVS; at 70% RH): 1.5% at 70% RH
- DVS (Hygroscopicity by DVS; at 95% RH): 37.1% at 95% RH
SMILES: CN1C[C@H]2C[C@@]2(C#Cc2cc3ncnc(Nc4cccc(Cl)c4F)c3cc2NC(=O)/C=C/CN2CCOCC2)C1 [Form M, (E)-N-(4-((3-chloro-2-fluorophenyl)amino)-7-(((1R,5S)-3-methyl-3-azabicyclo[3.1.0]hexan-1-yl)ethynyl)quinazolin-6-yl)-4-morpholinobut-2-enamide]
- Bulk (XRPD) ([3]; 25 °C/92% RH, open container, 2 weeks, no form change after dried under ambient condition): Sticky sample;; also recorded: No form change after dried under ambient
- Bulk (XRPD) ([3]; 25 °C/92% RH, open container, 4 weeks, no form change after dried under ambient condition): Sticky sample;; also recorded: No form change after dried under ambient
- Bulk (XRPD) ([3]; 60 °C, tight container, 4 weeks, (Crystallinity decreased)): No form change; also recorded: (Crystallinity decreased)
